# According to patent publication US20240408086A1, “USE OF LUVADAXISTAT FOR THE TREATMENT OF COGNITIVE IMPAIRMENT” (TAKEDA PHARMACEUTICAL COMPANY LIMITED, priority 2021, published 2024):
# System: adult patients with persistent negative symptoms of schizophrenia
# Format: in vivo, human
# Description: To assess changes in cognitive impairment associated with schizophrenia (CIAS), secondary endpoints included the 12-week change from baseline in the Brief Assessment of Cognition in Schizophrenia (BACS) composite score, a measure of cognition across multiple domains, and the Schizophrenia Cognition Rating Scale (SCORS) score, a measure of day-to-day cognitive functioning requiring input from an adult informant. Secondary endpoints were not corrected for multiplicity.
# The BACS is specifically designed to measure treatment-related improvements in cognition and includes alternate forms. BACS is a reliable and sensitive measure of cognitive function in schizophrenia. The BACS is a cognition assessment battery that assesses 6 domains of cognitive function found to be consistently impaired in schizophrenia: verbal memory; working memory; motor speed; attention; executive functions; and verbal fluency. The primary measure from each test of the BACS is standardized by creating T-scores whereby the mean of the test session of a matched reference healthy participant is set to 50 and the standard deviation set to 10.
# [1] = 50 mg once daily, MMRM, preliminary analysis
# [2] = 50 mg once daily, preliminary analysis
compound,measurement,setting,value
"O=c1[nH]nc(CCc2ccc(C(F)(F)F)cc2)cc1O [Compound (I), luvadaxistat]","BACS composite score, effect size versus placebo","50 mg once daily, 12 weeks, p=0.031, not corrected for multiplicity",0.4
same,"BACS Verbal Memory Cognition Domain, Difference from Placebo for Week 12, LS Mean (SE)","50 mg once daily, MMRM, one-sided unadjusted p 0.038, preliminary analysis",2.6 (1.43)
same,"BACS Composite Score, Difference from Placebo for Week 12, LS Mean (SE)","50 mg once daily, MMRM, one-sided unadjusted p 0.046, preliminary analysis",1.9 (1.15)
same,"BACS Verbal Memory Cognition Domain, Difference from Placebo for Week 6, LS Mean (SE)","50 mg once daily, MMRM, one-sided unadjusted p 0.071, preliminary analysis",1.9 (1.29)
same,"BACS Composite Score, Difference from Placebo for Week 6, LS Mean (SE)","50 mg once daily, MMRM, one-sided unadjusted p 0.096, preliminary analysis",1.3 (1.01)
same,"BACS Motor Speed Cognition Domain, Difference from Placebo for Week 12, LS Mean (SE)","50 mg once daily, MMRM, one-sided unadjusted p 0.101, preliminary analysis",1.5 (1.17)
same,"BACS Working Memory Cognition Domain, Difference from Placebo for Week 12, LS Mean (SE)","50 mg once daily, MMRM, one-sided unadjusted p 0.413, preliminary analysis",0.3 (1.34)
same,"BACS Motor Speed Cognition Domain, Difference from Placebo for Week 6, LS Mean (SE)","50 mg once daily, MMRM, one-sided unadjusted p 0.440, preliminary analysis",0.2 (1.26)
same,"BACS Working Memory Cognition Domain, Difference from Placebo for Week 6, LS Mean (SE)","50 mg once daily, MMRM, one-sided unadjusted p 0.507, preliminary analysis",0.0 (1.15)
same,"BACS Composite Score, Adjusted Change from Baseline to Week 6, LS Mean (SE)",[1],0.9 (0.81)
same,"BACS Composite Score, Adjusted Change from Baseline to Week 12, LS Mean (SE)",[1],2.7 (0.92)
same,"BACS Motor Speed Cognition Domain, Adjusted Change from Baseline to Week 6, LS Mean (SE)",[1],0.1 (1.00)
same,"BACS Motor Speed Cognition Domain, Adjusted Change from Baseline to Week 12, LS Mean (SE)",[1],1.0 (0.93)
same,"BACS Verbal Memory Cognition Domain, Adjusted Change from Baseline to Week 6, LS Mean (SE)",[1],0.6 (1.04)
same,"BACS Verbal Memory Cognition Domain, Adjusted Change from Baseline to Week 12, LS Mean (SE)",[1],1.9 (1.13)
same,"BACS Working Memory Cognition Domain, Adjusted Change from Baseline to Week 6, LS Mean (SE)",[1],0.0 (0.92)
same,"BACS Working Memory Cognition Domain, Adjusted Change from Baseline to Week 12, LS Mean (SE)",[1],0.9 (1.06)
same,"BACS composite score, 12-week LS mean change from baseline","50 mg once daily, placebo 2.3",4.6
same,"BACS Composite Score, Change from Baseline to Week 6, Mean (SD)",[2],1.7 (5.81)
same,"BACS Composite Score, Change from Baseline to Week 6, Median",[2],2.0
same,"BACS Composite Score, Change from Baseline to Week 12, Mean (SD)",[2],3.8 (5.91)
same,"BACS Composite Score, Change from Baseline to Week 12, Median",[2],3.0
same,"BACS Composite Score, Week 6, Mean (SD)",[2],35.4 (14.53)
same,"BACS Composite Score, Week 6, Median",[2],34.0
same,"BACS Composite Score, Week 12, Mean (SD)",[2],37.7 (13.30)
same,"BACS Composite Score, Week 12, Median",[2],37.5
same,"BACS Motor Speed Cognition Domain, Change from Baseline to Week 6, Mean (SD)",[2],1.7 (5.73)
same,"BACS Motor Speed Cognition Domain, Change from Baseline to Week 6, Median",[2],1.0
same,"BACS Motor Speed Cognition Domain, Change from Baseline to Week 12, Mean (SD)",[2],2.6 (6.80)
same,"BACS Motor Speed Cognition Domain, Change from Baseline to Week 12, Median",[2],1.0
same,"BACS Motor Speed Cognition Domain, Week 6, Mean (SD)",[2],40.6 (13.61)
same,"BACS Motor Speed Cognition Domain, Week 6, Median",[2],40.0
same,"BACS Motor Speed Cognition Domain, Week 12, Mean (SD)",[2],42.0 (12.93)
same,"BACS Motor Speed Cognition Domain, Week 12, Median",[2],41.5
same,"BACS Verbal Memory Cognition Domain, Change from Baseline to Week 6, Mean (SD)",[2],1.6 (7.40)
same,"BACS Verbal Memory Cognition Domain, Change from Baseline to Week 6, Median",[2],0.0
same,"BACS Verbal Memory Cognition Domain, Change from Baseline to Week 12, Mean (SD)",[2],3.2 (7.87)
same,"BACS Verbal Memory Cognition Domain, Change from Baseline to Week 12, Median",[2],4.0
same,"BACS Verbal Memory Cognition Domain, Week 6, Mean (SD)",[2],41.7 (11.59)
same,"BACS Verbal Memory Cognition Domain, Week 6, Median",[2],44.5
same,"BACS Verbal Memory Cognition Domain, Week 12, Mean (SD)",[2],42.9 (12.41)
same,"BACS Verbal Memory Cognition Domain, Week 12, Median",[2],43.5
same,"BACS Working Memory Cognition Domain, Change from Baseline to Week 6, Mean (SD)",[2],1.0 (6.60)
same,"BACS Working Memory Cognition Domain, Change from Baseline to Week 6, Median",[2],0.0
same,"BACS Working Memory Cognition Domain, Change from Baseline to Week 12, Mean (SD)",[2],2.1 (6.61)
same,"BACS Working Memory Cognition Domain, Change from Baseline to Week 12, Median",[2],1.0
same,"BACS Working Memory Cognition Domain, Week 6, Mean (SD)",[2],40.8 (14.10)
same,"BACS Working Memory Cognition Domain, Week 6, Median",[2],42.0
same,"BACS Working Memory Cognition Domain, Week 12, Mean (SD)",[2],42.0 (13.95)
same,"BACS Working Memory Cognition Domain, Week 12, Median",[2],42.5
same,"BACS Attention Cognition Domain, Change from Baseline to Week 6, Mean (SD)","50 mg, Week 6",0.9 (7.74)
same,"BACS Attention Cognition Domain, Change from Baseline to Week 6, Median","50 mg, Week 6",0.0
same,"BACS Attention Cognition Domain, Week 6, Mean (SD)","50 mg, Week 6",36.0 (14.78)
same,"BACS Attention Cognition Domain, Week 6, Median","50 mg, Week 6",34.0
same,"BACS Executive Functions Cognition Domain, Change from Baseline to Week 6, Mean (SD)","50 mg, Week 6",1.6 (10.55)
same,"BACS Executive Functions Cognition Domain, Change from Baseline to Week 6, Median","50 mg, Week 6",2.0
same,"BACS Executive Functions Cognition Domain, Week 6, Mean (SD)","50 mg, Week 6",44.9 (11.66)
same,"BACS Executive Functions Cognition Domain, Week 6, Median","50 mg, Week 6",48.5
same,"BACS Verbal Fluency Cognition Domain, Change from Baseline to Week 6, Mean (SD)","50 mg, Week 6",−0.2 (5.57)
same,"BACS Verbal Fluency Cognition Domain, Change from Baseline to Week 6, Median","50 mg, Week 6",0.0
same,"BACS Verbal Fluency Cognition Domain, Week 6, Mean (SD)","50 mg, Week 6",39.9 (10.86)
same,"BACS Verbal Fluency Cognition Domain, Week 6, Median","50 mg, Week 6",38.0
same,"BACS Attention Cognition Domain, Adjusted Change from Baseline to Week 6, LS Mean (SE)","50 mg, Week 6, MMRM",1.0 (0.90)
